Test results reported in patent US6664260B2, “Heterocyclic ether substituted imidazoquinolines” (3M Innovative Properties Company, priority 2000, dated 2003).
Where a name gives a salt, the structure may show the parent alone.

Columns and labels:
[1] = tested on: interferon (α); test: Cytokine Induction in Human Cells: interferon (α) secreted by PBMCs, ELISA; type: cell-based; design: key to Lowest Effective Concentration (μM) Interferon: A “*” indicates that no induction was seen at any of the tested concentrations; generally the highest tested concentration was 10 or 30 μM; conditions: incubated 18 to 24 hours, lowest concentration found to induce interferon; for minimal effective concentration: PBMC
From the text: (§1) An in vitro human blood cell system is used to assess cytokine induction. Activity is based on the measurement of interferon and tumor necrosis factor (α) (IFN and TNF, respectively) secreted into culture media as described by Testerman et. al. In “Cytokine Induction by the Immunomodulators Imiquimod and S-27609”, Journal of Leukocyte Biology, 58, 365-372 (September, 1995).
(§2) Whole blood from healthy human donors is collected by venipuncture into EDTA vacutainer tubes. Peripheral blood mononuclear cells (PBMCs) are separated from whole blood by density gradient centrifugation using Histopaque®-1077. The PBMCs are washed twice with Hank's Balanced Salts Solution and then are suspended at 3-4×10^6 cells/mL in RPMI complete. The PBMC suspension is added to 48 well flat bottom sterile tissue culture plates (Costar, Cambridge, Mass. or Becton Dickinson Labware, Lincoln Park, N.J.) containing an equal volume of RPMI complete media containing test compound.
(§3) The compounds are solubilized in dimethyl sulfoxide (DMSO). The DMSO concentration should not exceed a final concentration of 1% for addition to the culture wells
(§4) The solution of test compound is added at 60 μM to the first well containing RPMI complete and serial 3 fold dilutions are made in the wells. The PBMC suspension is then added to the wells in an equal volume, bringing the test compound concentrations to the desired range (0.12 to 30 μM). The final concentration of PBMC suspension is 1.5-2×10^6 cells/mL. The plates are covered with sterile plastic lids, mixed gently and then incubated for 18 to 24 hours at 37° C. in a 5% carbon dioxide atmosphere.
(§5) Following incubation the plates are centrifuged for 5-10 minutes at 1000 rpm (˜200×g) at 4° C. The cell-free culture supernatant is removed with a sterile polypropylene pipet and transferred to sterile polypropylene tubes. Samples are maintained at −30 to −70° C. until analysis. The samples are analyzed for interferon (α) and for tumor necrosis factor (α) by ELISA.
Interferon (α) concentration is determined by ELISA using a Human Multi-Species kit from PBL Biomedical Laboratories, New Brunswick, N.J. Results are expressed in pg/mL.
(§6) The table below lists the lowest concentration found to induce interferon and the lowest concentration found to induce tumor necrosis factor for each compound.

[2] = tested on: tumor necrosis factor (α); test: Cytokine Induction in Human Cells: tumor necrosis factor (α) secreted by PBMCs, ELISA; type: cell-based; design: key to Lowest Effective Concentration (μM) Tumor Necrosis Factor: A “*” indicates that no induction was seen at any of the tested concentrations; generally the highest tested concentration was 10 or 30 μM; conditions: incubated 18 to 24 hours, lowest concentration found to induce tumor necrosis factor; for minimal effective concentration: PBMC
From the text: as §1, §2, §3, §4, §5
Tumor necrosis factor (α) (TNF)concentration is determined using ELISA kits available from Genzyme, Cambridge, Mass.; R&D Systems, Minneapolis, Minn.; or Pharmingen, San Diego, Calif. Results are expressed in pg/mL.
as §6

Row | melting point | SMILES | minimal effective concentration [1] | minimal effective concentration [2] | Lowest Effective Concentration (μM) Tumor Necrosis Factor [2] | Lowest Effective Concentration (μM) Interferon [1]
1 | 209 to 211 °C | Nc1nc2ccccc2c2c1ncn2CCOCc1cn(Cc2ccccc2)nn1 (as salt: hydrochloride) [Example 10, 1-{2-[(1-Benzyl-1H-1,2,3-triazol-4-yl)methoxy]ethyl}-1H-imidazo[4,5-c]quinoline-4-amine hydrochloride] |  |  |  | 
2 | 229 to 231 °C | Nc1nc2ccccc2c2c1ncn2CCOCc1cccnc1 (as salt: hydrochloride) [Example 13, 1-[2-(Pyridin-3-ylmethoxy)ethyl]-1H-imidazo[4,5-c]quinolin-4-amine Hydrochloride] |  |  |  | 
3 | 214 to 215 °C | Nc1nc2ccccc2c2c1ncn2CCOCC#Cc1ncccn1 (as salt: trifluoroacetate) [Example 17, 1-(2-{[3-(Pyrimidin-2-yl)-2-propynyl]oxy}ethyl)-1H-imidazo[4,5-c]quinolin-4-amine trifluoroacetate] |  |  |  | 
4 | 135 °C (dec.) | Nc1nc2ccccc2c2c1ncn2CCOCC#Cc1ccncc1 (as salt: trifluoroacetate) [Example 18, 1-(2-{[3-(Pyrid-4-yl)-2-propynyl]oxy}ethyl)-1H-imidazo[4,5-c]quinolin-4-amine bis(trifluoroacetate)] |  |  |  | 
5 | 160 to 162 °C | Nc1nc2ccccc2c2c1ncn2CCOCC#Cc1ccoc1 (as salt: trifluoroacetate) [Example 19, 1-(2-{[3-(Fur-3-yl)-2-propynyl]oxy}ethyl)-1H-imidazo[4,5-c]quinolin-4-amine trifluoroacetate] |  |  |  | 
6 | 129 to 131 °C | Nc1nc2ccccc2c2c1ncn2CCOCC#Cc1ccccn1 (as salt: trifluoroacetate) [Example 21, 1-(2-{[3-(Pyrid-2-yl)-2-propynyl]oxy}ethyl)-1H-imidazo[4,5-c]quinolin-4-amine trifluoroacetate] |  |  |  | 
7 |  | Nc1nc2ccccc2c2c1ncn2CCOCC#Cc1cncc2ccccc12 [Example 1, 1-(2-{[3-(Isoquinolin-4-yl)-2-propynyl]oxy}ethyl)-1H-imidazo[4,5-c]quinolin-4-amine] | 0.12 µM | 3.33 µM |  | 
8 | 157 to 159 °C | Nc1nc2ccccc2c2c1ncn2CCOCC#Cc1nccs1 [Example 2, 1-(2-{[3-(1,3-Thiazol-2-yl)-2-propynyl]oxy}ethyl)-1H-imidazo[4,5-c]quinolin-4-amine] | 0.37 µM | 10 µM |  | 
9 |  | Nc1nc2ccccc2c2c1ncn2CCOCCCc1cn[nH]c1 [Example 3, 1-{2-[3-(1H-Pyrazol-4-yl)propoxy]ethyl}-1H-imidazo[4,5-c]quinolin-4-amine] | 0.04 µM |  | * | 
10 | 126 to 127 °C | Nc1nc2ccccc2c2c1ncn2CCOCCCc1ncccn1 [Example 4, 1-[2-(3-Pyrimidin-2-ylpropoxy)ethyl]-1H-imidazo[4,5-c]quinolin-4-amine] | 3.33 µM |  | * | 
11 | 160 to 162 °C | Nc1nc2ccccc2c2c1ncn2CCOCCCc1ccncc1 [Example 5, 1-[2-(3-Pyridin-4-ylpropoxy)ethyl]-1H-imidazo[4,5-c]quinolin-4-amine] | 0.04 µM | 0.37 µM |  | 
12 |  | Nc1nc2ccccc2c2c1ncn2CCOCCCc1cccnc1 [Example 8, 1-[2-(3-Pyridin-3-ylpropoxy)ethyl]-1H-imidazo[4,5-c]quinolin-4-amine Bis(trifluoroacetate)] | 0.04 µM | 0.12 µM |  | 
13 |  | Nc1nc2ccccc2c2c1ncn2CCOCCCc1cncnc1 [Example 9, 1-[2-(3-Pyrimidin-5-ylpropoxy)ethyl]-1H-imidazo[4,5-c]quinolin-4-amine] | 0.12 µM | 3.33 µM |  | 
14 |  | Nc1nc2ccccc2c2c1ncn2CCOCc1cn(Cc2ccccc2)nn1 [Example 10, 1-{2-[(1-Benzyl-1H-1,2,3-triazol-4-yl)methoxy]ethyl}-1H-imidazo[4,5-c]quinoline-4-amine hydrochloride] | 1.11 µM | 1.11 µM |  | 
15 |  | Nc1nc2ccccc2c2c1ncn2CCOCc1cc2ccccc2o1 [Example 12, 1-[2-(Benzo[b]furan-2-ylmethoxy)ethyl]-1H-imidazo[4,5-c]quinolin-4-amine] | 1.11 µM |  | * | 
16 |  | Nc1nc2ccccc2c2c1ncn2CCOCc1cccnc1 [Example 13, 1-[2-(Pyridin-3-ylmethoxy)ethyl]-1H-imidazo[4,5-c]quinolin-4-amine Hydrochloride] | 0.37 µM | 1.11 µM |  | 
17 |  | Nc1nc2ccccc2c2c1ncn2CCOCC#Cc1ncccn1 [Example 17, 1-(2-{[3-(Pyrimidin-2-yl)-2-propynyl]oxy}ethyl)-1H-imidazo[4,5-c]quinolin-4-amine trifluoroacetate] | 0.37 µM | 0.37 µM |  | 
18 |  | Nc1nc2ccccc2c2c1ncn2CCOCC#Cc1ccncc1 [Example 18, 1-(2-{[3-(Pyrid-4-yl)-2-propynyl]oxy}ethyl)-1H-imidazo[4,5-c]quinolin-4-amine bis(trifluoroacetate)] | 0.37 µM | 10 µM |  | 
19 |  | Nc1nc2ccccc2c2c1ncn2CCOCC#Cc1ccoc1 [Example 19, 1-(2-{[3-(Fur-3-yl)-2-propynyl]oxy}ethyl)-1H-imidazo[4,5-c]quinolin-4-amine trifluoroacetate] | 0.12 µM | 3.33 µM |  | 
20 |  | Nc1nc2ccccc2c2c1ncn2CCOCC#Cc1csc(C=O)c1 [Example 20, 4-{3-[2-(4-Amino-1H-imidazo[4,5-c]quinolin-1-yl)ethoxy]-propyn-1-yl}thiophen-2-ylcarboxaldehyde trifluoroacetate] | 0.12 µM | 3.33 µM |  | 
21 |  | Nc1nc2ccccc2c2c1ncn2CCOCC#Cc1ccccn1 [Example 21, 1-(2-{[3-(Pyrid-2-yl)-2-propynyl]oxy}ethyl)-1H-imidazo[4,5-c]quinolin-4-amine trifluoroacetate] | 1.11 µM | 10 µM |  | 
22 |  | CC(Cn1cnc2c(N)nc3ccccc3c21)OCC1CCCO1 (centres unmarked) [Example 22] | 1.11 µM | 10 µM |  | 
23 |  | CC(C)C(COc1ncccc1[N+](=O)[O-])n1cnc2c(N)nc3ccccc3c21 (centres unmarked) [Example 23] | 1.11 µM |  | * | 
24 |  | CC(C)C(COCc1csc2ccc(Cl)cc12)n1cnc2c(N)nc3ccccc3c21 (centres unmarked) [Example 24] |  |  | * | *
25 |  | CC(Cn1cnc2c(N)nc3ccccc3c21)OCc1csc2ccc(Cl)cc12 (centres unmarked) [Example 25] | 10 µM |  | * | 
26 |  | CC(Cn1cnc2c(N)nc3ccccc3c21)Oc1ncccc1[N+](=O)[O-] (centres unmarked) [Example 26] | 1.11 µM |  | * | 
27 |  | CC(C)C(COc1ccccn1)n1cnc2c(N)nc3ccccc3c21 (centres unmarked) [Example 27, 1-{2-Methyl-1-[(pyrid-2-yloxy)methyl]propyl}-1H-imidazo[4,5-c]quinoline-4-amine trifluoroacetate] | 1.11 µM |  | * | 
28 |  | CC(Cn1cnc2c(N)nc3ccccc3c21)Oc1ccc2[nH]c3ccccc3c2c1 (centres unmarked) [Example 29, 1-[2-(9H-carbazol-3-yloxy)propyl]-1H-imidazo[4,5-c]quinolin-4-amine trifluoroacetate] | 1.11 µM |  | * | 
29 |  | CCCCc1nc2c(N)nc3ccccc3c2n1CCOCCCc1cccnc1 [Example 35, 2-Butyl-1-[2-(3-pyridin-3-ylpropoxy)ethyl]-1H-imidazo[4,5-c]quinoline-4-amine] | 0.01 µM | 0.12 µM |  | 
30 | 140 to 141 °C | Cc1nc2c(N)nc3c(c2n1CCOCCCc1cccnc1)CCCC3 [Example 37, 2-methyl-1-[2-(3-pyridin-3-ylpropoxy)ethyl]-6,7,8,9-tetrahydro-1H-imidazo[4,5-c]quinolin-4-amine] |  |  |  | 
